The values that follow come from ChEMBL document CHEMBL1201862, “PubChem BioAssay data set” (2004).

One experiment has as its target Cytochrome P450 2C9 (Homo sapiens, UniProt P11712).
The target of experiment [1] is T1, RNA-binding protein pos-1 (Caenorhabditis elegans, UniProt G5EF15).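 Note: purified POS-1 fused to maltose binding protein made in E. coli; potency of compounds blocking POS-1 binding to fluorescent RNA.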
T1 sequence (G5EF15 whole entry): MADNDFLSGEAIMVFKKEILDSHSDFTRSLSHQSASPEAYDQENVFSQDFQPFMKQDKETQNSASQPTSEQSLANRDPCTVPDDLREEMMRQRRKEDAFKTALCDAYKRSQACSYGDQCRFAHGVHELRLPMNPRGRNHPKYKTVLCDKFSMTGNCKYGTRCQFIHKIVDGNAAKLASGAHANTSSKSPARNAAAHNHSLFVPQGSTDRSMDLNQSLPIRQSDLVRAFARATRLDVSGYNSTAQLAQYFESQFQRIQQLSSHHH
Description: inhibitors of POS-1/mex-3 RNA binding, dose response, biochemical, fluorescence polarization (AID 1964). (In general: Fluorescence polarisation rises when a labelled molecule tumbles more slowly, as on binding a larger partner.)

Experiment [2] has as its target T2, Zinc finger protein mex-5 (Caenorhabditis elegans, UniProt Q9XUB2).
T2 sequence (Q9XUB2 whole entry): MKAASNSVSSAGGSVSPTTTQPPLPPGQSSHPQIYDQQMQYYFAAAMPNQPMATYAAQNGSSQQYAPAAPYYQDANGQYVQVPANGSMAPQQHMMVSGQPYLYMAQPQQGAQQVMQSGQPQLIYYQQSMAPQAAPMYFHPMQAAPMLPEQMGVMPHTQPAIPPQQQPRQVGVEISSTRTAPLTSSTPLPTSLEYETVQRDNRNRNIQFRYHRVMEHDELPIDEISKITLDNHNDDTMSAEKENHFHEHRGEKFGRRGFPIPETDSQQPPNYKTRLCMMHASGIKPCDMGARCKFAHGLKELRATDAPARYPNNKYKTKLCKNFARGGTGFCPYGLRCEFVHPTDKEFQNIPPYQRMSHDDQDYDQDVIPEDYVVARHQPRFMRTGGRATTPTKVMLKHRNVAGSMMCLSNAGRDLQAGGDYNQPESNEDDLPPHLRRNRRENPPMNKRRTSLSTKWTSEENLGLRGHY
Description: MEX-5/TCR-2 RNA interaction inhibitors, dose response, biochemical, C. elegans, fluorescence polarization (AID 1960).

A short description of experiment [3]: NIH-3T3 fibroblast cytotoxicity, dose response, cytotoxicity control, cell-based, fluorescence, Alamar Blue, secondary assay (AID 2327).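 Note: NIH-3T3 mouse fibroblasts cultured with fluconazole at 8 µg/mL.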 It is filed as functional. On the technique in general: The colour change of resazurin is a common sign of viable cells or microbes.
A short description of experiment [4]: C. albicans growth with fluconazole, confirmation, fluorescence, retest (AID 2467). It is filed as functional, cell-based.
Experiment [5] deals with T3, Corticotropin-releasing factor receptor 2/Corticotropin-releasing factor-binding protein (Homo sapiens, UniProt P24387+Q13324).
T3 sequence (Q13324 whole entry): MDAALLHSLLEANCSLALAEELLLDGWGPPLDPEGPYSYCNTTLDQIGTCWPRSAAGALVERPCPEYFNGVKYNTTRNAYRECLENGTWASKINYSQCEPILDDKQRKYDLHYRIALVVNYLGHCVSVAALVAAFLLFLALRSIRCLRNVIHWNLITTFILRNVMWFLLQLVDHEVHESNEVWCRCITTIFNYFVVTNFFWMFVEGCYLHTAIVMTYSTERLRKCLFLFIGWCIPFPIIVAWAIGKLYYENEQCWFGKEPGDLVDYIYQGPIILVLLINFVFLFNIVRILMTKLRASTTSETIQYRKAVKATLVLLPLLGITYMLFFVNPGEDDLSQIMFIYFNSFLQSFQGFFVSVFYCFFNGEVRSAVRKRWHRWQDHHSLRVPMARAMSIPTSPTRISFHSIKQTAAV
T3 sequence (P24387 whole entry): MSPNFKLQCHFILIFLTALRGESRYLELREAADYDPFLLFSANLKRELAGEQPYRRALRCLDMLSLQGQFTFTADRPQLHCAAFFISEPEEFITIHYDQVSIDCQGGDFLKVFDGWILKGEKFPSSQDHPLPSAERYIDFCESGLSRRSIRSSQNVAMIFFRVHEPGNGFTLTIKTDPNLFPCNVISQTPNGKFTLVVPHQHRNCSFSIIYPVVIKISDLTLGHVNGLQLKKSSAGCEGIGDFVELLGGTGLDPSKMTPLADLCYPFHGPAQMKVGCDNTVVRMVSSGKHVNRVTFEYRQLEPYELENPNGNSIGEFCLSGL
Description: activators of CRF receptor 2 with binding protein – uHTS hits, confirmation (AID 602473). Format: functional. The following applies: read-out: EC50_Mean.

In experiment [6] the target is T4, Heat shock factor protein 1 (Mus musculus, UniProt P38532).
T4 sequence (P38532 whole entry): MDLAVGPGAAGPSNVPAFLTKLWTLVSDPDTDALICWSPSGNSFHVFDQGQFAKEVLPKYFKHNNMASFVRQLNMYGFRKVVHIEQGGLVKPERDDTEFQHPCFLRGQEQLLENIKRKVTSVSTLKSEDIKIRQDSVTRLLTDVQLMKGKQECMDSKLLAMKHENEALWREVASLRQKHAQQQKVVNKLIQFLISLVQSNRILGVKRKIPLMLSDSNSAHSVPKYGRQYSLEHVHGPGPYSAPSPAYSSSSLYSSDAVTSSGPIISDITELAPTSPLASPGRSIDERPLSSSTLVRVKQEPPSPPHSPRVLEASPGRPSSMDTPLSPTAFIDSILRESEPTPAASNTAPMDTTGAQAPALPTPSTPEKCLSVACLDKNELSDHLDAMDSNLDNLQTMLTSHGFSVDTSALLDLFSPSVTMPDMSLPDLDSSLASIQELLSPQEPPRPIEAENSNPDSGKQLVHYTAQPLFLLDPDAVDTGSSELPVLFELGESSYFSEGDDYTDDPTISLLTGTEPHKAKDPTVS
Description: inhibition of MG132-induced HSE-luciferase signal, confirmation, cell-based, NIH3T3, luminescence, dose retest (AID 2382).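 Note: NIH3T3 fibroblasts with HSF1-driven luciferase reporter stressed by proteasome inhibitor MG132; luminescence from HSF1-driven luciferase expression after 8 hours of MG132 stress.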 Format: functional.

A short description of experiment [7]: Shn3 3'UTR reporter inhibitors, dose response, cell-based, Clone20 osteoblasts, firefly luciferase, cherry-picked (AID 624132).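 Note: firefly luciferase luminescence from reporter carrying the Shn3 3'UTR in osteoblasts.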 It is filed as functional.
Experiment [8] can be described thus: control 3'UTR Renilla luciferase suppression, dose response, counter-screen for Shn3 inhibitor project, cell-based, Clone20-Shn3RL, cherry-picked (AID 624133). Format: functional. Background: Counterscreens check selectivity or assay interference.
Experiment [9] has as its target T5, Replicative DNA helicase DnaB (Mycobacterium tuberculosis, UniProt P9WMR3).
T5 sequence (P9WMR3 whole entry): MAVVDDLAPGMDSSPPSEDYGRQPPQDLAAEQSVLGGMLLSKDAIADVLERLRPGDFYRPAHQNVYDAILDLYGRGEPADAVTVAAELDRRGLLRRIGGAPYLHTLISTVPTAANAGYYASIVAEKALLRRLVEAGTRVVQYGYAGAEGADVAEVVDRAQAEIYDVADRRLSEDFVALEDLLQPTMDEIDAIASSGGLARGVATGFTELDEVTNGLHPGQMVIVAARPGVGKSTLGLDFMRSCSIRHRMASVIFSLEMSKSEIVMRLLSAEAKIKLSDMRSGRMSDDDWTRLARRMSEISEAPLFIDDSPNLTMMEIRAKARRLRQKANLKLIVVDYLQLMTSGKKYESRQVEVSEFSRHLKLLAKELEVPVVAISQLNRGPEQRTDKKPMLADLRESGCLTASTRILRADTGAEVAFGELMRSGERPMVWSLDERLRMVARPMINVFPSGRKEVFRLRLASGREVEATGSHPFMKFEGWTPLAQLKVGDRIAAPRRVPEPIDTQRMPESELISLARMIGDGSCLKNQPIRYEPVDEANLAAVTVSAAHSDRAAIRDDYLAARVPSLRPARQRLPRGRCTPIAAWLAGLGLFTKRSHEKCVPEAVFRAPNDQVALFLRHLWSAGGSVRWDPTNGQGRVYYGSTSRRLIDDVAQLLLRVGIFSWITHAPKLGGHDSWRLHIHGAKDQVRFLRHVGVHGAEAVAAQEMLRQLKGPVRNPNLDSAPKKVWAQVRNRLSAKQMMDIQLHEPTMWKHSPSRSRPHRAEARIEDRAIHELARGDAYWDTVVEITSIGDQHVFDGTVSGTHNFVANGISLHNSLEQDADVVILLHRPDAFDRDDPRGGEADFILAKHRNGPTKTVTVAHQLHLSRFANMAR
Description: DnaB intein splicing inhibitors, dose response, biochemical, cell-free fluorescence (AID 449749). It is filed as functional.

The next experiment deals with T6, Protein RecA (Mycobacterium tuberculosis, UniProt P9WHJ3).
T6 sequence (P9WHJ3 whole entry): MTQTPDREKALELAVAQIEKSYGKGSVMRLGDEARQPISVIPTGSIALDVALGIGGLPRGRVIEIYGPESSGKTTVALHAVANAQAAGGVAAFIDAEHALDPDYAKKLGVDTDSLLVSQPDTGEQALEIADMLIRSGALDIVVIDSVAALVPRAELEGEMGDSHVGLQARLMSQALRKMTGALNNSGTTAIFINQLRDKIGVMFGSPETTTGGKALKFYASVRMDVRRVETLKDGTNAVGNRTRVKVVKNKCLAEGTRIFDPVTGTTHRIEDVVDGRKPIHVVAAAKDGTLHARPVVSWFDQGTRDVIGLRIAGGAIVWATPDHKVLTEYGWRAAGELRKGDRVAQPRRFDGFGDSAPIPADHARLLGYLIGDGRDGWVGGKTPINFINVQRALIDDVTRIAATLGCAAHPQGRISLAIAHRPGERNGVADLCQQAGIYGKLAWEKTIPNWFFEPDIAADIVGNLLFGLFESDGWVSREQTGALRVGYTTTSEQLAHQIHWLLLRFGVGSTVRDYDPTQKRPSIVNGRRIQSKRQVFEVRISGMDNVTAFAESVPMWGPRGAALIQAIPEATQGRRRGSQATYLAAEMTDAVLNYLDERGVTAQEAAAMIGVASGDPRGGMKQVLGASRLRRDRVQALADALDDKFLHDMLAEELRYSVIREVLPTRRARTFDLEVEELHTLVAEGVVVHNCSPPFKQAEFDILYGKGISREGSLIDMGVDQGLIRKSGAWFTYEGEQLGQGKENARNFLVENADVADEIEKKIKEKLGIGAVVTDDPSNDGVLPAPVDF
The experiment in a line: Fluorescence Cell-Free Homogeneous Dose Retest to Identify Inhibitors of RecA-Intein Splicing Activity. [Related pubchem assays (depositor defined):AID2097, AID2223, AID489010, AID492950]. It is filed as functional.

Activity calls are given as the source filed them. Cut-off read from the data, not from the text of the source, for most assays here: actives have a measured EC50 and inactives only a lower limit. Some results are limits rather than exact numbers.

Cytochrome P450 2C9, sequence (P11712 whole entry, the tested form may be a part): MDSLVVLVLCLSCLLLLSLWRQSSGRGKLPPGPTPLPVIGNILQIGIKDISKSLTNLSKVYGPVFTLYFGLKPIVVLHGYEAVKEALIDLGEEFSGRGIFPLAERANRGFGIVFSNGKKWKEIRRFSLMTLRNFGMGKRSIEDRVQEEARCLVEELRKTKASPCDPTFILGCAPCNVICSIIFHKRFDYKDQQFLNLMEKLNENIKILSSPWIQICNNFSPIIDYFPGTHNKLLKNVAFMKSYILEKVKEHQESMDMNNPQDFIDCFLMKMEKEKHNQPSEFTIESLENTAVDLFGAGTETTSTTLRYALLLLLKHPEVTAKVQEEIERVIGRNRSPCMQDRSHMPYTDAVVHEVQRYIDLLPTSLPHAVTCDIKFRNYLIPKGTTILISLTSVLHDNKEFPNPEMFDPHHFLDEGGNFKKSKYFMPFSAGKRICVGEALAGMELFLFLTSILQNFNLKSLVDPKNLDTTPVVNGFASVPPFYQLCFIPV

As a reminder, the AC50 is the concentration at which the activity in the assay is half-maximal. `Cc1ccccc1C(C(=O)NC1CCCC1)N(C(=O)Cc1cccs1)c1ccc2c(c1)OCCO2` (stereo unspecified): the AC50 on Cytochrome P450 2C9 is 0.891 µM (inconclusive).

Take `CC(C)OC(=O)C(C#N)c1nc2ccccc2nc1N1CCCC1` (stereo unspecified): the EC50 in [1] and in [2] was > 300 µM (not active) each time. Turning to `CC(=O)Nc1ccc(N/C=C/C(=O)c2ccc(C)o2)cc1`, the EC50 in experiment [1] and in experiment [2] was > 300 µM (not active) each time. Turning to `COc1cccc(C(C(=O)NC2CCCC2)N(C(=O)c2ccco2)c2ccc(-n3cnnn3)c(C)c2)c1OC` (stereo unspecified), the EC50 in experiment [3] is > 150 µM (inconclusive); in experiment [4] it was > 38 µM (not active).

Turning to `CC(C)c1nc(N2CCN(C(=O)c3ccco3)CC2)c2c3c(sc2n1)CCCC3`, the figures for the EC50 in [3] and in experiment [4] were > 150 µM (inactive) and > 38 µM (not active), respectively. Regarding `COc1ccc2c3c([nH]c2c1)C1CC2C(CC(O)C(OC)C2C(=O)O)CN1CC3` (stereo unspecified), the EC50 in experiment [1] and in [2] was > 300 µM (not active) throughout. As to `CCCCC1=CC2=C(c3ccco3)C(=O)C(C)(OC(=O)c3ccc(OC)cc3)C(=O)C2=CN1C1CCCC1` (stereo unspecified), the EC50 in experiment [1] was 16 µM (active); in [2], 14.3 µM (active). For `CN1CCN(C(=O)c2cnn(-c3ccccc3)c2NC(=O)c2ccccc2)CC1`, the EC50 in experiment [3] is > 150 µM (inactive); in [4] it was > 38 µM (not active). Turning to `COc1ccccc1NC(=O)c1sc2nc(Cc3ccccc3)cc(C(F)(F)F)c2c1N`, the results for the EC50 in [1], in [2] and in [5] were 9.55 µM (inconclusive), 16.2 µM (active) and 6.15 µM (active), respectively. Regarding `COCCN1Cc2cccc(C(=O)Nc3ccc4c(c3)OCCO4)c2C1=O`, the EC50 in experiment [6] was 11.6 µM (active). For the same compound, the AC50 is 27.1 µM (active) in experiment [7] and 19.1 µM (active) in experiment [8].

In the case of `COc1cccc(C2C(C(=O)c3ccc(C)cc3)=C(O)C(=O)N2Cc2ccco2)c1` (stereo unspecified), the EC50 is > 160 µM (inconclusive) in experiment [3] and 3.1 µM (active) in experiment [4]. As for `O=C(c1ccc(Br)s1)N1CCN(c2ccccn2)CC1`, the EC50 in experiment [1] and in experiment [2] was > 300 µM (not active) throughout. Turning to `Cc1cc2oc(=O)c(CC(=O)NCCCO)c(C)c2c2occ(C(C)(C)C)c12`, the EC50 in experiment [1] and in experiment [2] was > 300 µM (not active) throughout.

With `O=C(NCc1ccccc1)C(c1ccncc1)N(C(=O)c1csnn1)C1CC1` (stereo unspecified), the AC50 on Cytochrome P450 2C9 was 1.78 µM (inconclusive). As for `COc1ccc(C2C(C#N)=C(N)OC3=C2C(=O)CC(C)(C)C3)cc1OC` (stereo unspecified), the EC50 in experiment [1] and in [2] was > 300 µM (not active) each time. For the compound `CN(C)N1C(N)=C(C#N)C(c2cccnc2)C2=C1CC(C)(C)CC2=O` (stereo unspecified), the AC50 at Cytochrome P450 2C9 is 0.0224 µM (inconclusive). As for `Cc1ccc(N/N=C2\COC(C)(C)CC2=O)cc1`, the results for the EC50 in experiment [3] and in experiment [4] were > 160 µM (inactive) and > 38 µM (not active), respectively. As to `CC(C)(C)NC(=O)NC(=O)CN1CCCc2ccccc21`, the EC50 was > 150 µM (inactive) in experiment [3] and > 38 µM (not active) in experiment [4].

With `Cc1ccc([N+](=O)[O-])cc1S(=O)(=O)N(C(=O)c1ccncc1)c1ccc2oc3c(c2c1)CCCC3`, the AC50 in experiment [9] is 42 µM (active). Further, the EC50 on Protein RecA was 10.8 µM (active). As for `CC(C)(c1ccccc1)c1ccc(OCC2CO2)cc1` (stereo unspecified), the AC50 in experiment [9] was 10 µM (active). In addition, at Protein RecA, the EC50 was 11.9 µM (active). `Cc1ccccc1OCC(=O)Nc1ccc2c(c1)C(=O)c1ccccc1C2=O`: the figures for the EC50 in [1] and in experiment [2] were 36.1 µM (active) and > 300 µM (not active), respectively.
